From patent EP4755403A1, “ANTI-PSMA ANTIBODY-DRUG CONJUGATE AND PHARMACEUTICAL USE THEREOF” (Jiangsu Hengrui Pharmaceuticals Co., Ltd., priority 2023, dated 2025)

Key:
Experiment in all cases: Cell killing activity of ADC molecules (CellTiter-Glo)
Format in all cases: cell-based, human
Settings in all cases: 5 days
22RV1 cells = tested on: 22RV1 cells
Experimental: (§1) LNCaP (ATCC, CRL-1740), 22RV1 (ATCC, CRL-2505), and PC-3 (ATCC, CRL-1435) cells were digested with trypsin, neutralized with a fresh medium, centrifuged at 1000 rpm, and then resuspended in a medium. After the cells were counted, the density of the cell suspensions was adjusted to […], and the cells were plated onto a 96-well plate. The adjusted cell suspension (135 µL) was added to each well with […]. Only the middle 60 wells were used for plating, and six wells in the twelfth column were taken as pure medium controls without cells. An equal volume of PBS was added to the other wells. The cells were incubated at 37 °C with 5% CO2 for 16 h.
(§2) Then 20 µL of the dilution was added to the cell plate described above, and the plate was incubated in an incubator (37 °C, 5% CO2) for 5 days. […] Subsequently, 9-point serial dilutions at a 1:3 ratio were performed with PBS. Then 1 µL of the dilution was added to 20 µL of RPMI-1640, and the mixture was transferred to a 96-well cell culture plate. The plate was incubated in an incubator (37 °C, 5% CO2) for 5 days. In the 96-well cell culture plate, 80 µL of the CellTiter-Glo reagent was added to each well, and the plate was left to stand in the dark at room temperature for 10-15 min. The chemiluminescence signal values were read on Victor3, and the data were processed using GraphPad software.
(§3) On the fifth day, the culture plate was taken out and allowed to return to room temperature. The CellTiter-Glo assay solution (75 µL) was added to each well, and the plate was left to stand in the dark at room temperature for 10 min. A Backseal membrane was attached to the bottom of the cell culture plate. The plate was placed on a microplate reader Victor 3, and luminescence signal values were read. Curve fitting was performed according to the log values of concentrations of the test compounds to the corresponding signal values using Graphpad Prism software, and IC50 values were calculated. The maximum value of killing was defined as the maximum killing rate (Imax) of the compound. The killing rate was calculated as follows: [formula]

LNCaP cells = tested on: LNCaP cells
Experimental: as §1, §2, §3

PC-3 cells = tested on: PC-3 cells
Experimental: as §1, §2, §3

[1] = Homo sapiens, 120 h, read-out: IC50 (killing effect)

`CC[C@@]1(O)C(=O)OCc2c1cc1n(c2=O)Cc2c-1nc1cc(F)c(C)c3c1c2[C@@H](NC(=O)[C@H](O)C1CC1)CC3` [Compound 2-B] was tested, and the “Imax (maximum killing rate)” value (22RV1 cells) was 98.07%, the IC50 (22RV1 cells; [1]) was 0.534 nM and the “Imax (maximum killing rate)” value (LNCaP cells) was 97.13%. For the same compound, the IC50 (LNCaP cells; [1]) was 0.535 nM, the “Imax (maximum killing rate)” value (PC-3 cells) was 92.78% and the IC50 (PC-3 cells; [1]) was 1.54 nM.
